Paper PMC6158167 (Nature Communications, 2018)

Assays:
ShHTL7 = biological target: T1, ShHTL7 (Striga hermonthica, UniProt A0A0M3PNA2); assay: ITC binding to ShHTL7; conditions: 3 mM KAR1 into 150 μM protein
T1 sequence (A0A0M3PNA2 1-271): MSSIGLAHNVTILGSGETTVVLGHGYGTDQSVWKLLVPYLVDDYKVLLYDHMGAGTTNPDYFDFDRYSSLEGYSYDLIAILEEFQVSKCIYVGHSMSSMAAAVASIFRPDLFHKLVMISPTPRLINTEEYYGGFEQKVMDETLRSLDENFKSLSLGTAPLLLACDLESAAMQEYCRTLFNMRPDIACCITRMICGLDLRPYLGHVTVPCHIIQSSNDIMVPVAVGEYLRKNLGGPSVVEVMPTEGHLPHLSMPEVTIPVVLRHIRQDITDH
Protocol: (§1) The binding assays were performed using a MicroCal iTC200 isothermal titration calorimeter (GE Healthcare). Prior to the ITC experiments, concentrated ShD14, ShHTL1, ShHTL4, and ShHTL7 were exchanged into a buffer consisting of 20 mM HEPES (pH 8.0) and 150 mM NaCl to remove dithiothreitol and were then adjusted to a final concentration of 150 μM. The sample cell was filled with protein solution (204 μL). Nineteen consecutive 2.0-μL aliquots of 3 mM KAR1 (3-methyl-2H-furo [2,3-c] pyran-2-one) were injected into a prepared protein solution at 150 s intervals at 20 °C. The first injection volume was 0.4 μL, and the observed thermal peak was excluded from the data analysis. A negative control was obtained by titrating 3 mM KAR1 into the buffer (20 mM HEPES, pH 8.0, 150 mM NaCl) in the same manner. Data fitting was performed in “one set of sites” mode, and KD values were calculated using Origin software provided by MicroCal.
(§2) Supplementary Figure 3. Binding analyses of ShHTLs and ShD14 with KAR1. The ITC
(§3) assays were performed by adding 3 mM KAR1 to 150 μM ShHTL1 (a), ShHTL4 (b), ShHTL7
(§4) (c), ShD14 (d) and AtHTL (e).
(§5) ShHTL1 and AtHTL were fitted using the MicroCal origin software with the “one binding site”
(§6) model. The ITC assays titrating KAR1 into ShHTL1 and AtHTL were repeated three times
(§7) independently (data not shown).

Striga = system: Striga; design: method as in doi:10.1016/j.plantsci.2009.06.007, PMID 26228149; conditions: cited from earlier work
AtHTL = biological target: T2, AtHTL (Arabidopsis thaliana, UniProt Q9SZU7); assay: ITC binding to AtHTL; conditions: 3 mM KAR1 into 150 μM protein, 20 °C
T2 sequence (Q9SZU7 1-270): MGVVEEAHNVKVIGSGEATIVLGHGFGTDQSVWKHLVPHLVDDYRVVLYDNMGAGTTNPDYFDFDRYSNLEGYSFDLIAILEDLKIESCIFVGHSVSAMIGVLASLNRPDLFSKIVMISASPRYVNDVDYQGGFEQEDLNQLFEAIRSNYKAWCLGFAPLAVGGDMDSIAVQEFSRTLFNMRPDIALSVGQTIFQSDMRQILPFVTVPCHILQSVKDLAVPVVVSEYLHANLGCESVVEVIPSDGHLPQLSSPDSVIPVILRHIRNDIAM
Protocol: as §1, §2, §3, §4, §5, §6, §7

[1] = system: ShHTL1–ShMAX2 interaction; assay: In vitro pull-down ShHTL1-ShMAX2; type: binding, Striga hermonthica; conditions: 50 μM ligand
Protocol: Ni-NTA pull-down assays were performed with purified ShMAX2 or AtMAX2 as the bait and […]14, or GST-AtD14 as the prey. The molecular weight of the HTL/D14 proteins is nearly the same as that of ASK1; therefore, the HTL/D14 proteins were fused to GST, increasing their molecular weight for detection on SDS-PAGE gels. […] The protein complexes were then eluted with 100 μL of elution buffer containing 50 mM Bis-Tris, pH 6.8, 500 mM NaCl, and 500 mM imidazole and subjected to SDS-PAGE analysis. Samples of […] […] also subjected to western blotting after separation by SDS-PAGE. The proteins were transferred from the SDS-PAGE gel to a polyvinylidene fluoride (PVDF) membrane (Merck Millipore). […] Next, the membrane was incubated with anti-GST antibody as the primary antibody (71097-3; Novagen; diluted 1:10,000) at 25 °C for 1.5 h and then washed 3 times with TBST buffer. Anti-mouse antibody (32430; Thermo Scientific; diluted 1:4000) conjugated to horseradish peroxidase was used as the secondary antibody. After incubation with the secondary antibody at 25 °C for 1.5 h, the membrane was washed 3 times. For detection, SuperSignal West Femto Maximum Sensitivity Substrate (Thermo Scientific) was used as the chemiluminescence substrate and ImageQuant LAS 4000 mini (GE Healthcare) was used for imaging.

ShHTL7 L124F/T190F/C194F = ShHTL7 L124F/T190F/C194F (Striga hermonthica, UniProt A0A0M3PNA2, C194F/L124F/T190F); assay: ITC binding to ShHTL7 triple mutation; conditions: 3 mM KAR1 into 150 μM mutant
ShHTL7 L124F/T190F/C194F, sequence (A0A0M3PNA2 whole entry L124F/T190F/C194F): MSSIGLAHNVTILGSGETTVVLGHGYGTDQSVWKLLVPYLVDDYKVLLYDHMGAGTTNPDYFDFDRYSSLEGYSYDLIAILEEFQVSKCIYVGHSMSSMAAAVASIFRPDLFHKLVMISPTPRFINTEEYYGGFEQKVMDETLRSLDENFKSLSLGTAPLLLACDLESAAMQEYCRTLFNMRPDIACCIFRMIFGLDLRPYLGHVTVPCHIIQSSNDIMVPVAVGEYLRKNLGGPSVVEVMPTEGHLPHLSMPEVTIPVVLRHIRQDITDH
Protocol: Supplementary Figure 8. Activity measurements of ShHTL7 mutants. (a-b), Binding analyses of the T190F/C194F double mutation (a) and L124F/T190F/C194F triple mutation (b) of ShHTL7 with KAR1 by ITC (shown in black). The ITC assays were performed by adding 3 mM KAR1 to 150 μM ShHTL7 mutants in the same manner as in Supplementary Figure 3. Results of titrating buffer to 150 μM ShHTL7 mutants are shown in red. The upper panel for each […]
injection (black squares). (c) YLG hydrolytic activity of ShHTL7 and its mutants. As described

AtHTL–AtMAX2 interaction = AtHTL–AtMAX2 interaction (Arabidopsis thaliana, UniProt Q9SZU7); conditions: pull-down, 50 μM ligand, western blotting
Protocol: and AtHTL were detected using an anti-GST antibody, as indicated by the black arrows. (b)
1/10, 1/20, 1/50, 1/100, 1/1000) of transformed yeast cells was plated on control medium (SD/-
Leu/-Trp; -LT) and selective medium (SD/-Leu/-Trp/-His/-Ade; -LTHA) in the absence or
(1 picture or pasted object on this page, not shown here)

ShHTL1 = ShHTL1 (Striga hermonthica, UniProt A0A0M4AV81); assay: ITC binding to ShHTL1; conditions: 3 mM KAR1 into 150 μM protein, 20 °C, means ± SD, n = 3, read-out: dissociation constant (KD) of KAR1 to ShHTL1
ShHTL1, sequence (A0A0M4AV81 entry or part of it): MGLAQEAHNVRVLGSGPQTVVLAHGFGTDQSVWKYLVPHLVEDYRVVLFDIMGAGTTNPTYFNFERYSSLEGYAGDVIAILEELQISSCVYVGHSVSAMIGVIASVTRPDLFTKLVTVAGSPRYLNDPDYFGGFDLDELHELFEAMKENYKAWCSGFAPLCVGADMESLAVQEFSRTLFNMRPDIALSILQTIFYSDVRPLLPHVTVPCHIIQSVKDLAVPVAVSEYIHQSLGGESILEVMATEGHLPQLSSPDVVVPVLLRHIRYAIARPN
Protocol: Binding analyses of ShHTLs and ShD14 with KAR1. The ITC assays were performed by adding 3 mM KAR1 to 150 μM ShHTL1 (a), ShHTL4 (b), ShHTL7
ShHTL1 and AtHTL were fitted using the MicroCal origin software with the “one binding site” model.

In the case of Cc1c2ccocc-2oc1=O [KAR1, 3-methyl-2H-furo [2,3-c] pyran-2-one], the “KAR1 binding ability of ShHTL7” value (ShHTL7) is given as “no significant KAR1 binding ability”, the “induction of germination of Striga” value (Striga) is given as “fails to induce germination of Striga” and the Kd (AtHTL) is given as 129 ± 17 µM. For the same compound, the “ShHTL1-ShMAX2 interaction in the presence of ligand” value [1] was “no direct interaction with ShMAX2 in the presence of KAR1”, the “KAR1 binding by ShHTL7 L124F/T190F/C194F” value (ShHTL7 L124F/T190F/C194F) was “able to bind to KAR1 weakly” and the “ligand effect on AtHTL-AtMAX2 interaction” value (AtHTL–AtMAX2 interaction) was “did not interact with AtMAX2 in a KAR1-dependent manner”. For the same compound, the Kd (ShHTL1) was 77 ± 12 µM.
